# Legend:
# [1] = Cardiotoxicity assessment (Bertazzoli Test), tumor-bearing mice; assay type: in vivo, female NSG mice; details: for hearts with Severity 0 / hearts with Severity 0.5 / hearts with Severity 1.0: 2 i.p. doses; for hearts with Total Score 0 / hearts with Total Score 0.5 / hearts with Total Score 1.0: severity×extension
# Protocol: Drug-mediated cardiotoxicity was assessed in both non-tumor-bearing female NSG mice administered three doses (i.p. every two weeks) of the MTD of doxorubicin, pivarubicin or the equivalent volume of solvent only and in hearts excised from tumor-bearing mice treated as described in Results section. Body weights were monitored every three days. Two weeks after final dose, mice were sacrificed, and hearts were excised immediately. Intact ventricular myocardia were fixed for a minimum of 24 h in 10% formalin phosphate buffered to pH 7.0 and then carefully sectioned into 2 to 3-mm thick slices before being dehydrated in graded ethanol and cleared in xylene prior to embedding in paraffin at 58° C. Sections (4-μm thick) were mounted on glass slides, deparaffinized in xylene, and stained in the routine fashion with Mayer's hematoxylin and eosin. Slide labels were blinded to evaluator. Myocardial lesions were evaluated by routine light microscopy and scored with regard to the severity and extent of damage:
# Degree of severity (S)—0, no evidence of histological changes; 1, sarcoplasmic microvacuolization and/or inclusions (interstitial or cellular edema); 2, as in 1 plus sarcoplasmic macrovacuolization or atrophia, necrosis, fibrosis, endocardial lesions, and thrombi.
# Degree of extension (E)—0, no lesions; 0.5, less than 10 single altered myocytes on the whole-heart section; 1, scattered single altered myocytes; 2, scattered small groups of altered myocytes; 3, spread small groups of altered myocytes; 4, confluent groups of altered myocytes; 5, most of cells damaged.
# Total cardiotoxicity score/animal=S×E and mean total score (MTS) for each treatment group was MTS=(S×E)/number of animals.
# Given the limitation of doxorubicin in the treatment of tumors due to irreversible cardiotoxicity due to the total cumulative dose of drug, it was next determined whether pivarubicin produced evidence of cardiotoxic damage at the total dose of drug administered to NSG mice that produced tumor growth inhibition. Histological evidence of ventricular damage in hearts of drug- or vehicle-treated NSG mice were assessed using the Bertazzoli Test, originally designed to assess doxorubicin-induced cardiomyocyte damage. Analyses were performed on hearts from two independent experiments: 1) hearts that were excised at dosing endpoint from tumor-bearing NSG mice receiving 2 i.p. doses of pivarubicin at 16.5 mg/kg, doxorubicin at 1.4 mg/kg then 1.6 mg/kg and an equivalent volume of vehicle alone and 2) non-tumor-bearing female NSG mice receiving 3 i.p. doses of pivarubicin at 16.5 mg/kg, doxorubicin at 1.4 mg/kg then 1.6 mg/kg×2 and an equivalent volume of vehicle alone at 2-week intervals.
# Non-tumor-bearing female NSG mice at 9 weeks old were treated with either 16.5 mg/kg pivarubicin (PIV), 1.4 mg/kg (1×) and 1.6 mg/kg (2×) doxorubicin and equivalent volumes of vehicle i.p. at 2-week intervals. Tumor-bearing female NSG mouse treatment was as described for the “Cardiotoxicity Assessment method” method. At endpoint, hearts were excised and prepared for histological analysis as described above. Severity and severity×extension (total score) are defined in Materials and Methods.
# [2] = system: LM2 tumors; assay: Orthotopic xenograft of luminescent MDA-MB-231 (LM2) cells in mammary glands
# Protocol: Monolayer LM2 cells were trypsinized and resuspended in DMEM media containing 10% FBS and 1× antibiotic/antimitotic. Cell concentration was adjusted to yield 2.5 […] for each 10 uL injection in PBS. After preparation for injection, cells were kept on ice at all times. Cells were surgically implanted into the left and right inguinal mammary glands of 4-week-old female NSG mice (NOD/SCID IL2Rγ−/−; Jackson Laboratory [Bar Harbor Me.] #5557) bred in-house. Mice were anesthetized with 1.2% avertin via intraperitoneal (i.p.) injection prior to surgery. Mice were also injected subcutaneously between shoulder blades with rimadyl for pain relief on day of surgery and on day following surgery. Primary tumor growth prior to and during treatment was monitored initially by manual palpation for tumor appearance, then twice weekly using digital calipers. Tumor volume was calculated by the formula: Volume=(Width2×Length)/2. When tumors attained a volume of approximately […], cohorts of 10 randomized drug-naïve, female, NSG mice (8±1 weeks old, 23±2 g) were administered the maximum tolerated dose (MTD) of pivarubicin, doxorubicin or the equivalent volume of vehicle (70% sterile saline, 15% ethanol, 15% Cremophor EL) as a bolus i.p. injection in parallel experiments. Tumor volumes were measured in a blinded manner.
# Mice were imaged using Xenogen In Vivo Imaging System® Lumina from Perkin Elmer (Waltham Mass.). Stock D-Luciferin, Firefly, potassium salt (Perkin Elmer, 122799) was prepared in DPBS at a concentration of 30 mg/mL and sterile filtered with 0.2 micrometer syringe filter. Luciferin was further diluted to 15 mg/mL in DPBS prior to injection. Mice were injected i.p. with 200 uL of luciferin. Primary tumors were imaged by placing mice in dorsal recumbency using luminescent setting of auto exposure, field of view D with resolution setting of 4 (medium binning), 10 minutes after injection with luciferin, approximately 5 minutes following anesthetization with isoflurane. Data are reported as total flux in photons per second (p/s) using Living Image software.
# In a study of doxorubicin treatment of TNBC-bearing NSG mice, LM2 cells were implanted into the 4R and 4L cleared mammary fat pads of female NSG mice and permitted to proliferate for 26 days until a tumor volume range of 125-190 mm3 was reached based on caliper measurements. Doxorubicin was administered IP rapid push in 70% sterile saline, 15% EtOH, 15% Cremophor EL at 14-day intervals, with tumor volumes measured at indicated days post-implantation, as summarized in FIG. 7A. […] At endpoint, mice were euthanized, and primary tumors resected for volume (FIG. 7B), weight (FIG. 7C), and luminescence (FIG. 7D) measurements. Endpoint results are expressed as the mean±standard error of 10 mice per group. Statistical significance was determined by the Wilcoxon rank-sum test.
# Pivarubicin treatment of TNBC-bearing NSG mice was also studied. LM2 cells were implanted into the 4R and 4L cleared mammary fat pads of female NSG mice and permitted to proliferate for 22-24 days until a tumor volume range of 125-190 mm3 was reached based on caliper measurements. Pivarubicin was administered IP rapid push in 70% sterile saline, 15% EtOH, 15% Cremophor EL as either a single dose at 26.6 mg/kg (FIG. 8A) or in two 16.5-mg/kg doses at a 14-day interval (FIG. 8B) with tumor volumes measured at indicated days post-implantation. […] At endpoint, mice were euthanized, and primary tumors resected for volume (FIG. 8C) and weight (FIG. 8D) measurements. Results are expressed as the mean±standard error of 10 mice per group. Statistical significance was determined by the Wilcoxon rank-sum test.
# [3] = system: MDA-MB-231 cells; assay: Secondary tumorsphere formation; assay type: cell-based, human; details: 2.5 μM, up to 7 days
# Protocol: either vehicle, pivarubicin (NV), or doxorubicin (DOX), and cultured for up to 7 days prior to obtaining the digital images shown in FIG. 6C (vehicle only), FIG. 6D (2.5 uM PIV), and FIG. 6E (2.5 uM DOX). The bar graph in FIG. 6F represents the mean number of tumorspheres greater than […] in diameter/well (n>3).
# [4] = two doses of 16.5 mg/kg i.p. at two-week interval, endpoint
Structure (SMILES),hearts with Severity 0 [1],hearts with Severity 0.5 [1],hearts with Severity 1.0 [1],hearts with Total Score 0 [1],hearts with Total Score 0.5 [1],hearts with Total Score 1.0 [1],mean decrease in tumor volume compared with mean volume prior to drug administration ([2]; single MTD dose (26.6 mg/kg i.p.)),"mean weight loss (poorly reversible) ([2]; single MTD, tumor-bearing NSG mice)","decrease in tumor volume compared with vehicle treatment [2, 4]","decrease in tumor weight compared with vehicle treatment [2, 4]",inhibition of secondary tumorsphere formation [3],"tumor growth compared with vehicle treatment (volume, weight) ([2]; 1.4 mg/kg, then 1.6 mg/kg 14 days later, i.p.)",weight loss in tumor-bearing mice ([2]; after 1.4 mg/kg and 1.6 mg/kg)
"COc1cccc2c1C(=O)c1c(O)c3c(c(O)c1C2=O)C[C@@](O)(C(=O)COC(=O)C(C)(C)C)C[C@@H]3O[C@H]1C[C@H](NCc2ccccc2)[C@H](O)[C@H](C)O1 [Pivarubicin, N-Benzyladriamycin-14-pivalate]",9/10,0/10,1/10,9/10,0/10,1/10,40%,20%,50%,40%,complete inhibition,–,–
"COc1cccc2c1C(=O)c1c(O)c3c(c(O)c1C2=O)C[C@@](O)(C(=O)CO)C[C@@H]3O[C@H]1C[C@H](N)[C@H](O)[C@H](C)O1 [Doxorubicin, reference compound]",7/9,0/9,2/9,8/9,1/9,0/9,–,–,–,–,partial inhibition,failed to exhibit reduced growth,excessive and irreversible weight loss

# Source: patent publication US11666589B2, “Pivarubicin and benzarubicin compositions” (Paradox Pharmaceuticals, Inc., priority 2020, dated 2023)
